From patent US20230263822A1, “MODULATION OF FACTOR 11 EXPRESSION” (Ionis Pharmaceuticals, Inc., priority 2008, published 2023)
Strand notation (5' to 3'): a small letter for the sugar, then the base; units joined by * are phosphorothioate-linked, units joined directly phosphodiester-linked; [ ] holds rarer units or linkages, { } end groups; capitals alone tell only the bases. e = 2'-O-(2-methoxyethyl) (MOE); [5mC] = 5-methylcytosine; d = 2'-deoxy (DNA)

Assays:
Factor 11 protein = Factor 11 protein in monkey plasma by sandwich ELISA (Example 46); format: in vivo, cynomolgus monkeys; conditions: for Inhibition of Factor 11 protein relative to the PBS control (percentage reduction): 25 mg/kg subcutaneously
Protocol: (§1) Groups, each consisting of two male and two female monkeys, were injected subcutaneously with 25 mg/kg of ISIS 416850, ISIS 449709, ISIS 445522, ISIS 449710, ISIS 449707, ISIS 449711, ISIS 449708, 416858, and ISIS 445531. Antisense oligonucleotide was administered to the monkeys at 25 mg/kg three times per week for week 1 and 25 mg/kg twice per week for weeks 2 to 8. A control group, consisting of two male and two female monkeys was injected subcutaneously with PBS according to the same dosing regimen. Body weights were taken 14 days and 7 days before the start of treatment and were then measured weekly throughout the treatment period. Blood samples were collected 14 days and 5 days before the start of treatment and subsequently several times during the dosing regimen for PT and aPTT measurements, and measurement of various hematologic factors. On day 55, the monkeys were euthanized by exsanguination while under deep anesthesia, and organs harvested for further analysis.
Plasma samples from all monkey groups taken on different days were analyzed by a sandwich-style ELISA assay (Affinity Biologicals Inc.) using an affinity-purified polyclonal anti-Factor 11 antibody as the capture antibody and a peroxidase-conjugated polyclonal anti-Factor 11 antibody as the detecting antibody. Monkey plasma was diluted 1:50 for the assay. Peroxidase activity was expressed by incubation with the substrate o-phenylenediamine. The color produced was quantified using a microplate reader at 490 nm and was considered to be proportional to the concentration of Factor 11 in the samples.
The results are presented in Table 147, expressed as percentage reduction relative to that of the PBS control.

[1] = Hematology assays in cynomolgus monkeys (Example 46); format: in vivo
Protocol: as §1

## 416850 (antisense TGCACAGTTTCTGGCAGGCC; 5-10-5 gapmer, further chemistry not given here) [compound 416850]
Factor 11 protein; Day 10, plasma
  Inhibition of Factor 11 protein relative to the PBS control (percentage reduction): 20%
Factor 11 protein; Day 17, plasma
  Inhibition of Factor 11 protein relative to the PBS control (percentage reduction): 31%
Factor 11 protein; Day 24, plasma
  Inhibition of Factor 11 protein relative to the PBS control (percentage reduction): 38%
Factor 11 protein; Day 31, plasma
  Inhibition of Factor 11 protein relative to the PBS control (percentage reduction): 52%
Factor 11 protein; Day 38, plasma
  Inhibition of Factor 11 protein relative to the PBS control (percentage reduction): 51%
Factor 11 protein; Day 45, plasma
  Inhibition of Factor 11 protein relative to the PBS control (percentage reduction): 53%
Factor 11 protein; Day 52, plasma
  Inhibition of Factor 11 protein relative to the PBS control (percentage reduction): 53%
Factor 11 protein; Day 55, plasma
  Inhibition of Factor 11 protein relative to the PBS control (percentage reduction): 58%
Factor 11 protein; Day −5, plasma
  Inhibition of Factor 11 protein relative to the PBS control (percentage reduction): 0%
Factor 11 protein; Day −14, plasma
  Inhibition of Factor 11 protein relative to the PBS control (percentage reduction): 0%

## 416858 (antisense ACGGCATTGGTGCACAGTTT; 5-10-5 gapmer, further chemistry not given here) [compound 416858]
Factor 11 protein; Day 10, plasma
  Inhibition of Factor 11 protein relative to the PBS control (percentage reduction): 36%
Factor 11 protein; Day 17, plasma
  Inhibition of Factor 11 protein relative to the PBS control (percentage reduction): 49%
Factor 11 protein; Day 24, plasma
  Inhibition of Factor 11 protein relative to the PBS control (percentage reduction): 62%
Factor 11 protein; Day 31, plasma
  Inhibition of Factor 11 protein relative to the PBS control (percentage reduction): 68%
Factor 11 protein; Day 38, plasma
  Inhibition of Factor 11 protein relative to the PBS control (percentage reduction): 74%
Factor 11 protein; Day 45, plasma
  Inhibition of Factor 11 protein relative to the PBS control (percentage reduction): 79%
Factor 11 protein; Day 52, plasma
  Inhibition of Factor 11 protein relative to the PBS control (percentage reduction): 81%
Factor 11 protein; Day 55, plasma
  Inhibition of Factor 11 protein relative to the PBS control (percentage reduction): 81%
Factor 11 protein; Day −5, plasma
  Inhibition of Factor 11 protein relative to the PBS control (percentage reduction): 0%
Factor 11 protein; Day −14, plasma
  Inhibition of Factor 11 protein relative to the PBS control (percentage reduction): 4%

## 445522 (antisense eG*e[5mC]*eA*e[5mC]*eA*dG*dT*dT*dT*d[5mC]*dT*dG*dG*e[5mC]*eA*eG*eG*e[5mC]) [compound 445522]
Factor 11 protein; Day 10, plasma
  Inhibition of Factor 11 protein relative to the PBS control (percentage reduction): 36%
Factor 11 protein; Day 17, plasma
  Inhibition of Factor 11 protein relative to the PBS control (percentage reduction): 50%
Factor 11 protein; Day 24, plasma
  Inhibition of Factor 11 protein relative to the PBS control (percentage reduction): 61%
Factor 11 protein; Day 31, plasma
  Inhibition of Factor 11 protein relative to the PBS control (percentage reduction): 70%
Factor 11 protein; Day 38, plasma
  Inhibition of Factor 11 protein relative to the PBS control (percentage reduction): 73%
Factor 11 protein; Day 45, plasma
  Inhibition of Factor 11 protein relative to the PBS control (percentage reduction): 77%
Factor 11 protein; Day 52, plasma
  Inhibition of Factor 11 protein relative to the PBS control (percentage reduction): 80%
Factor 11 protein; Day 55, plasma
  Inhibition of Factor 11 protein relative to the PBS control (percentage reduction): 82%
Factor 11 protein; Day −5, plasma
  Inhibition of Factor 11 protein relative to the PBS control (percentage reduction): 0%
Factor 11 protein; Day −14, plasma
  Inhibition of Factor 11 protein relative to the PBS control (percentage reduction): 2%

## 445531 (antisense eG*eG*e[5mC]*eA*eT*dT*dG*dG*dT*dG*d[5mC]*dA*d[5mC]*eA*eG*eT*eT*eT) [compound 445531]
Factor 11 protein; Day 10, plasma
  Inhibition of Factor 11 protein relative to the PBS control (percentage reduction): 9%
Factor 11 protein; Day 17, plasma
  Inhibition of Factor 11 protein relative to the PBS control (percentage reduction): 22%
Factor 11 protein; Day 24, plasma
  Inhibition of Factor 11 protein relative to the PBS control (percentage reduction): 23%
Factor 11 protein; Day 31, plasma
  Inhibition of Factor 11 protein relative to the PBS control (percentage reduction): 27%
Factor 11 protein; Day 38, plasma
  Inhibition of Factor 11 protein relative to the PBS control (percentage reduction): 29%
Factor 11 protein; Day 45, plasma
  Inhibition of Factor 11 protein relative to the PBS control (percentage reduction): 32%
Factor 11 protein; Day 52, plasma
  Inhibition of Factor 11 protein relative to the PBS control (percentage reduction): 32%
Factor 11 protein; Day 55, plasma
  Inhibition of Factor 11 protein relative to the PBS control (percentage reduction): 37%
Factor 11 protein; Day −5, plasma
  Inhibition of Factor 11 protein relative to the PBS control (percentage reduction): 1%
Factor 11 protein; Day −14, plasma
  Inhibition of Factor 11 protein relative to the PBS control (percentage reduction): 0%

## ISIS 416850: MOE gapmer, nucleobases 1275 to 1318 of SEQ ID NO: 1 (Table 8) (antisense TGCACAGTTTCTGGCAGGCC; MOE gapmer, wing and gap sizes not given here)
[1]; Day 17
  HCT: 42%
  MCH: 23.7 pg
  MCHC: 31.3 g/dL
  MCV: 76 fL
  RBC count: 5.6e+06 µL⁻¹
  WBC count: 11000 µL⁻¹
  hemoglobin content: 13.3 g/dL
  monocytes: 3.2%
  neutrophils: 95%
  platelet count: 467 ×100/μL
[1]; Day 31
  HCT: 42%
  MCH: 23.3 pg
  MCHC: 31.0 g/dL
  MCV: 75 fL
  RBC count: 5.6e+06 µL⁻¹
  WBC count: 12000 µL⁻¹
  hemoglobin content: 13.1 g/dL
  monocytes: 3.7%
  neutrophils: 100%
  platelet count: 507 ×100/μL
[1]; Day 45
  HCT: 42%
  MCH: 22.7 pg
  MCHC: 31.0 g/dL
  MCV: 75 fL
  RBC count: 5.7e+06 µL⁻¹
  WBC count: 12000 µL⁻¹
  hemoglobin content: 13.1 g/dL
  monocytes: 3.8%
  neutrophils: 85%
  platelet count: 453 ×100/μL
[1]; Day 55
  HCT: 40%
  MCH: 22.9 pg
  MCHC: 30.9 g/dL
  MCV: 73 fL
  RBC count: 5.6e+06 µL⁻¹
  WBC count: 10000 µL⁻¹
  hemoglobin content: 12.7 g/dL
  monocytes: 3.4%
  neutrophils: 108%
  platelet count: 396 ×100/μL
[1]; Day-5
  HCT: 44%
  MCH: 23.7 pg
  MCHC: 30.7 g/dL
  MCV: 77 fL
  RBC count: 5.7e+06 µL⁻¹
  WBC count: 13000 µL⁻¹
  hemoglobin content: 13.5 g/dL
  monocytes: 2.9%
  neutrophils: 109%
  platelet count: 517 ×100/μL
[1]; Day-14
  HCT: 41%
  MCH: 23.7 pg
  MCHC: 32.0 g/dL
  MCV: 74 fL
  RBC count: 5.5e+06 µL⁻¹
  WBC count: 12000 µL⁻¹
  hemoglobin content: 13.0 g/dL
  monocytes: 1.9%
  neutrophils: 88%
  platelet count: 462 ×100/μL
Factor 11 protein; cynomolgus monkeys, 25 mg/kg
  Factor 11 protein levels in plasma: time-dependent decrease in protein levels

## ISIS 445531: 5-8-5 or 6-8-6 MOE microwalk gapmer (Table 44) (antisense eG*eG*e[5mC]*eA*eT*dT*dG*dG*dT*dG*d[5mC]*dA*d[5mC]*eA*eG*eT*eT*eT)
[1]; Day 17
  HCT: 43%
  MCH: 22.1 pg
  MCHC: 29.5 g/dL
  MCV: 75 fL
  RBC count: 5.8e+06 µL⁻¹
  WBC count: 17000 µL⁻¹
  hemoglobin content: 12.7 g/dL
  monocytes: 3.4%
  neutrophils: 85%
  platelet count: 380 ×100/μL
[1]; Day 31
  HCT: 41%
  MCH: 22.0 pg
  MCHC: 29.7 g/dL
  MCV: 75 fL
  RBC count: 5.6e+06 µL⁻¹
  WBC count: 17000 µL⁻¹
  hemoglobin content: 12.3 g/dL
  monocytes: 4.1%
  neutrophils: 116%
  platelet count: 376 ×100/μL
[1]; Day 45
  HCT: 41%
  MCH: 21.6 pg
  MCHC: 29.0 g/dL
  MCV: 75 fL
  RBC count: 5.5e+06 µL⁻¹
  WBC count: 20000 µL⁻¹
  hemoglobin content: 12.0 g/dL
  monocytes: 4.4%
  neutrophils: 93%
  platelet count: 345 ×100/μL
[1]; Day 55
  HCT: 41%
  MCH: 21.7 pg
  MCHC: 29.6 g/dL
  MCV: 74 fL
  RBC count: 5.6e+06 µL⁻¹
  WBC count: 15000 µL⁻¹
  hemoglobin content: 12.1 g/dL
  monocytes: 4.1%
  neutrophils: 91%
  platelet count: 319 ×100/μL
[1]; Day-5
  HCT: 42%
  MCH: 22.2 pg
  MCHC: 30.0 g/dL
  MCV: 74 fL
  RBC count: 5.7e+06 µL⁻¹
  WBC count: 15000 µL⁻¹
  hemoglobin content: 12.6 g/dL
  monocytes: 2.2%
  neutrophils: 80%
  platelet count: 416 ×100/μL
[1]; Day-14
  HCT: 41%
  MCH: 22.2 pg
  MCHC: 30.9 g/dL
  MCV: 72 fL
  RBC count: 5.7e+06 µL⁻¹
  WBC count: 20000 µL⁻¹
  hemoglobin content: 12.6 g/dL
  monocytes: 1.3%
  neutrophils: 60%
  platelet count: 379 ×100/μL
